In patent US12077503B2, “Substituted cyclic amides and their use as herbicides” (FMC CORPORATION, priority 2015, dated 2024):

What was measured:
Assay type in all cases: in vivo
[1] = tested on: pigweed (Amaranthus retroflexus); test: Test A preemergence
[2] = tested on: ryegrass, Italian (Italian ryegrass, Lolium multiflorum); test: Test A preemergence
In short: (§1)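 Visual injury scores from 0, no effect, to 100, complete control, were assigned versus untreated controls roughly 10 d after treatment in the greenhouse. Test chemicals, formulated with surfactant in a non-phytotoxic solvent, were applied to planted seeds as a preemergence soil spray or postemergence to one- to two-leaf plants 2 to 10 cm tall, in loam–sand soil.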

Kochia (Kochia scoparia) [3] = test: Test A preemergence
In short: as §1

[4] = tested on: barnyardgrass (Echinochloa crus-galli); test: Test A preemergence
In short: as §1

[5] = tested on: ragweed (common ragweed, Ambrosia elatior); test: Test A preemergence
In short: as §1

[6] = tested on: giant foxtail (Setaria faberii); test: Test A preemergence
In short: as §1

corn (Zea mays) = test: Test A postemergence
In short: as §1

[7] = tested on: pigweed (Amaranthus retroflexus); test: Test A postemergence
In short: as §1

[8] = tested on: Galium (catchweed bedstraw, Galium aparine); test: Test A postemergence
In short: as §1

[9] = tested on: ryegrass, Italian (Italian ryegrass, Lolium multiflorum); test: Test A postemergence
In short: as §1

Kochia (Kochia scoparia) [10] = test: Test A postemergence
In short: as §1

[11] = tested on: barnyardgrass (Echinochloa crus-galli); test: Test A postemergence
In short: as §1

[12] = tested on: ragweed (common ragweed, Ambrosia elatior); test: Test A postemergence
In short: as §1

[13] = tested on: wheat (Triticum aestivum); test: Test A postemergence
In short: as §1

[14] = tested on: giant foxtail (Setaria faberii); test: Test A postemergence
In short: as §1

[15] = tested on: blackgrass (Alopecurus myosuroides); test: Test A postemergence
In short: as §1

[16] = tested on: sedge, umbrella (small-flower umbrella sedge, Cyperus difformis); test: Test B flooded paddy test; conditions: Flood, 250 g ai/ha; 0 to 100 scale where 0 is no effect and 100 is complete control; 13 to 15 d
In short: (§2)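 Percent control, visually estimated after 13–15 d in the greenhouse on a 0–100 basis, compares treated pots with untreated ones; compound was put into paddy water 3 cm above the soil when plants had two leaves.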

rice (Oryra sativa) = test: Test B flooded paddy test; conditions: Flood, 250 g ai/ha; 0 to 100 scale where 0 is no effect and 100 is complete control; 13 to 15 d
In short: as §2

[17] = tested on: barnyardgrass (Echinochloa crus-galli); test: Test B flooded paddy test; conditions: Flood, 250 g ai/ha; 0 to 100 scale where 0 is no effect and 100 is complete control; 13 to 15 d
In short: as §2

[18] = tested on: ducksalad (Heteranthera limosa); test: Test B flooded paddy test; conditions: Flood, 250 g ai/ha; 0 to 100 scale where 0 is no effect and 100 is complete control; 13 to 15 d
In short: as §2

[19] = 125 g ai/ha, Preemergence, visual injury after approximately 10 d, 0 to 100 scale where 0 is no effect and 100 is complete control
[20] = 500 g ai/ha, preemergence, 0 to 100 scale, 0 = no effect, 100 = complete control
[21] = 125 g ai/ha, postemergence, visual rating after approx. 10 d, 0 to 100 scale (0 no effect, 100 complete control)
[22] = 500 g ai/ha, postemergence, visual injury, 0 to 100 scale (0 no effect, 100 complete control), approx. 10 d
[23] = 125 g ai/ha, preemergence, 0 to 100 scale (0 no effect, 100 complete control)
[24] = Preemergence, 500 g ai/ha, visual injury approx. 10 d
[25] = 125 g ai/ha, postemergence, visual injury rating on 0 to 100 scale (0 no effect, 100 complete control), approx. 10 d
[26] = 500 g ai/ha, postemergence, 0 to 100 scale, 0 no effect, 100 complete control
[27] = Preemergence, 500 g ai/ha, 0 is no effect, 100 is complete control
[28] = Postemergence, 125 g ai/ha, visual injury, 0 to 100 scale (0 no effect, 100 complete control), approx. 10 d

Cc1ccc(C2CNC(=O)C2C(=O)Nc2ccc(F)cc2F)cc1C(F)(F)F (racemic) [Compound 680]
Plant response rating, Pigweed [1, 19]: 0
Plant response rating, Pigweed [1, 20]: 0
Plant response rating, Ryegrass, Italian [2, 19]: 0
Plant response rating, Ryegrass, Italian [2, 20]: 20
Plant response rating, Kochia (Kochia (Kochia scoparia) [3]; [19]): 0
Plant response rating, Kochia (Kochia (Kochia scoparia) [3]; [20]): 20
Plant response rating, Barnyardgrass [4, 19]: 30
Plant response rating, Barnyardgrass [4, 20]: 90
Plant response rating, Ragweed [5, 19]: 0
Plant response rating, Ragweed [5, 20]: 0
Plant response rating, Foxtail, Giant [6, 19]: 60
Plant response rating, Foxtail, Giant [6, 20]: 90
Plant response rating, Corn (corn (Zea mays); [21]): 20
Plant response rating, Corn (corn (Zea mays); [22]): 20
Plant response rating, Pigweed [7, 21]: 0
Plant response rating, Pigweed [7, 22]: 0
Plant response rating, Galium [8, 21]: 0
Plant response rating, Galium [8, 22]: 20
Plant response rating, Ryegrass, Italian [9, 21]: 0
Plant response rating, Ryegrass, Italian [9, 22]: 0
Plant response rating, Kochia (Kochia (Kochia scoparia) [10]; [21]): 0
Plant response rating, Kochia (Kochia (Kochia scoparia) [10]; [22]): 0
Plant response rating, Barnyardgrass [11, 21]: 30
Plant response rating, Barnyardgrass [11, 22]: 60
Plant response rating, Ragweed [12, 21]: 0
Plant response rating, Ragweed [12, 22]: 0
Plant response rating, Wheat [13, 21]: 0
Plant response rating, Wheat [13, 22]: 0
Plant response rating, Foxtail, Giant [14, 21]: 0
Plant response rating, Foxtail, Giant [14, 22]: 30
Plant response rating, Blackgrass [15, 21]: 20
Plant response rating, Blackgrass [15, 22]: 20
Plant response rating, Sedge, Umbrella [16]: 0
Plant response rating, Rice (rice (Oryra sativa)): 15
Plant response rating, Barnyardgrass [17]: 20
Plant response rating, Ducksalad [18]: 30

CN1CC(c2ccc(Cl)cc2)C(C(=O)Nc2cccc(F)c2F)C1=O (stereo not drawn) [Compound 434]
Plant response rating, Pigweed [1, 23]: 80
Pigweed plant response rating (0 to 100 scale, 0 is no effect, 100 is complete control) [1, 24]: 90
Plant response rating, Ryegrass, Italian [2, 23]: 60
Ryegrass, Italian plant response rating (0 to 100 scale, 0 is no effect, 100 is complete control) [2, 24]: 90
Plant response rating, Kochia (Kochia (Kochia scoparia) [3]; [23]): 70
Kochia plant response rating (0 to 100 scale, 0 is no effect, 100 is complete control) (Kochia (Kochia scoparia) [3]; [24]): 80
Plant response rating, Barnyardgrass [4, 23]: 90
Barnyardgrass plant response rating (0 to 100 scale, 0 is no effect, 100 is complete control) [4, 24]: 90
Plant response rating, Ragweed [5, 23]: 50
Ragweed plant response rating (0 to 100 scale, 0 is no effect, 100 is complete control) [5, 24]: 60
Plant response rating, Foxtail, Giant [6, 23]: 90
Foxtail, Giant plant response rating (0 to 100 scale, 0 is no effect, 100 is complete control) [6, 24]: 100
Corn plant response rating (corn (Zea mays); [25]): 0
Plant response rating, Corn (corn (Zea mays); [26]): 70
Pigweed plant response rating [7, 25]: 60
Plant response rating, Pigweed [7, 26]: 70
Galium plant response rating [8, 25]: 60
Plant response rating, Galium [8, 26]: 60
Ryegrass, Italian plant response rating [9, 25]: 0
Plant response rating, Ryegrass, Italian [9, 26]: 50
Kochia plant response rating (Kochia (Kochia scoparia) [10]; [25]): 70
Plant response rating, Kochia (Kochia (Kochia scoparia) [10]; [26]): 70
Barnyardgrass plant response rating [11, 25]: 90
Plant response rating, Barnyardgrass [11, 26]: 90
Ragweed plant response rating [12, 25]: 20
Plant response rating, Ragweed [12, 26]: 20
Wheat plant response rating [13, 25]: 20
Plant response rating, Wheat [13, 26]: 70
Foxtail, Giant plant response rating [14, 25]: 90
Plant response rating, Foxtail, Giant [14, 26]: 90
Blackgrass plant response rating [15, 25]: 50
Plant response rating, Blackgrass [15, 26]: 50
Plant response rating, Sedge, Umbrella [16]: 0
Plant response rating, Rice (rice (Oryra sativa)): 0
Plant response rating, Barnyardgrass [17]: 70
Plant response rating, Ducksalad [18]: 100

O=C1NCC(c2csc(Br)c2)C1C(=O)Nc1cccc(F)c1F (racemic) [Compound 649]
Plant response rating, Pigweed [1, 19]: 50
Plant response rating, Pigweed [1, 20]: 60
Plant response rating, Ryegrass, Italian [2, 19]: 30
Plant response rating, Ryegrass, Italian [2, 20]: 70
Plant response rating, Kochia (Kochia (Kochia scoparia) [3]; [19]): 60
Plant response rating, Kochia (Kochia (Kochia scoparia) [3]; [20]): 70
Plant response rating, Barnyardgrass [4, 19]: 80
Plant response rating, Barnyardgrass [4, 20]: 90
Plant response rating, Ragweed [5, 19]: 20
Plant response rating, Ragweed [5, 20]: 70
Plant response rating, Foxtail, Giant [6, 19]: 50
Plant response rating, Foxtail, Giant [6, 20]: 70
Plant response rating, Corn (corn (Zea mays); [21]): 0
Plant response rating, Corn (corn (Zea mays); [22]): 0
Plant response rating, Pigweed [7, 21]: 0
Plant response rating, Pigweed [7, 22]: 30
Plant response rating, Galium [8, 21]: 50
Plant response rating, Galium [8, 22]: 70
Plant response rating, Ryegrass, Italian [9, 21]: 30
Plant response rating, Ryegrass, Italian [9, 22]: 40
Plant response rating, Kochia (Kochia (Kochia scoparia) [10]; [21]): 30
Plant response rating, Kochia (Kochia (Kochia scoparia) [10]; [22]): 60
Plant response rating, Barnyardgrass [11, 21]: 60
Plant response rating, Barnyardgrass [11, 22]: 70
Plant response rating, Ragweed [12, 21]: 20
Plant response rating, Ragweed [12, 22]: 60
Plant response rating, Wheat [13, 21]: 0
Plant response rating, Wheat [13, 22]: 0
Plant response rating, Foxtail, Giant [14, 21]: 30
Plant response rating, Foxtail, Giant [14, 22]: 60
Plant response rating, Blackgrass [15, 21]: 20
Plant response rating, Blackgrass [15, 22]: 60
Plant response rating, Sedge, Umbrella [16]: 0
Plant response rating, Rice (rice (Oryra sativa)): 0
Plant response rating, Barnyardgrass [17]: 60
Plant response rating, Ducksalad [18]: 100

CC(C)Oc1cccc(C2CN(C)C(=O)C2C(=O)Nc2ccc(F)cc2F)c1 (stereo not drawn) [Compound 378]
Plant response rating, Pigweed [1, 23]: 60
Pigweed plant response rating (0 to 100 scale) [1, 27]: 80
Plant response rating, Ryegrass, Italian [2, 23]: 50
Ryegrass, Italian plant response rating (0 to 100 scale) [2, 27]: 80
Plant response rating, Kochia (Kochia (Kochia scoparia) [3]; [23]): 80
Kochia plant response rating (0 to 100 scale) (Kochia (Kochia scoparia) [3]; [27]): 90
Plant response rating, Barnyardgrass [4, 23]: 20
Barnyardgrass plant response rating (0 to 100 scale) [4, 27]: 90
Plant response rating, Ragweed [5, 23]: 10
Ragweed plant response rating (0 to 100 scale) [5, 27]: 50
Plant response rating, Foxtail, Giant [6, 23]: 90
Foxtail, Giant plant response rating (0 to 100 scale) [6, 27]: 100
Plant response rating, Corn (corn (Zea mays); [26]): 80
Plant response rating, Corn (corn (Zea mays); [28]): 50
Plant response rating, Pigweed [7, 26]: 50
Plant response rating, Pigweed [7, 28]: 0
Plant response rating, Galium [8, 26]: 70
Plant response rating, Galium [8, 28]: 60
Plant response rating, Ryegrass, Italian [9, 26]: 70
Plant response rating, Ryegrass, Italian [9, 28]: 40
Plant response rating, Kochia (Kochia (Kochia scoparia) [10]; [26]): 70
Plant response rating, Kochia (Kochia (Kochia scoparia) [10]; [28]): 50
Plant response rating, Barnyardgrass [11, 26]: 90
Plant response rating, Barnyardgrass [11, 28]: 80
Plant response rating, Ragweed [12, 26]: 50
Plant response rating, Ragweed [12, 28]: 20
Plant response rating, Wheat [13, 26]: 50
Plant response rating, Wheat [13, 28]: 40
Plant response rating, Foxtail, Giant [14, 26]: 80
Plant response rating, Foxtail, Giant [14, 28]: 80
Plant response rating, Blackgrass [15, 26]: 70
Plant response rating, Blackgrass [15, 28]: 50
Plant response rating, Sedge, Umbrella [16]: 0
Plant response rating, Rice (rice (Oryra sativa)): 0
Plant response rating, Barnyardgrass [17]: 70
Plant response rating, Ducksalad [18]: 30
